One assay concerns the target T1, TRPA1 (Homo sapiens, UniProt O75762).
T1 construct: host or cells: HEK293
The experiment in a line: TRPA1 antagonist FLIPR assay (functional, HEK293 cell-based). Here is the method:
The TRPA1 agonist and antagonist fluorescent imaging plate reader (FLIPR) Assay (functional, HEK293 cell-based) was performed at Eurofins Panlabs, Inc. (St. Charles, MO, USA). The compounds were prepared in assay buffer to the final dilutions 10 and 50 µM. In each experiment, the respective reference compounds were tested: allyl isothiocyanate (the agonist assay) and ruthenium red (the antagonist assay). The […] assays were conducted on a FLIPR^TETRA instrument where the test compounds, vehicle controls, and reference agonists or antagonists were added to the assay plate after a fluorescence baseline was established. The agonist or antagonist incubation during the assay was for a total of 180 s and was used to assess each compound’s ability to activate or inactivate TRPA1. All plates were subjected to appropriate baseline corrections. Once baseline corrections were processed, maximum fluorescence values were exported, and data was manipulated to calculate percentage activation or percentage inhibition. Results showing activity greater than 25% were considered to represent significant effects of test compounds. Experiments were run three times, […].

Assay [1] concerns MRC-5 cells. The assay is described as follows: FBS-induced MRC-5 proliferation, alamarBlue assay. It counts as cell-based, human. The conditions noted are these: for inhibition at 50 µM: Homo sapiens, MRC5, read-out: inhibition of FBS-induced MRC-5 proliferation rate; for MRC-5 proliferation [% of control]: Table S1 (Figure 2B), 48 h with FBS. The protocol: The normal human lung fibroblast cell line—MRC-5 (ATCC® CCL-171™, Manassas, VA, USA)—was used in the study. Cells were cultured in Eagle’s Minimum Essential Medium (EMEM, ATCC® 30-2003™, Manassas, VA, USA) supplemented with 10% (v/v) fetal bovine serum (FBS; Gibco, Thermo Fisher Scientific, Waltham, MA, USA) and antibiotics mixture (penicillin, streptomycin, amphotericin B; Gibco, Thermo Fisher Scientific, Waltham, MA, USA) (standard culture medium) in standard culture conditions (5% CO2, 37 °C, 95% humidity). Unless otherwise specified, for the experiments, cells were seeded at a final density (5 × 10^3/cm^2) in standard culture medium for 24 h and then cultured in EMEM at reduced serum content (0.5%; v/v) for additional 24 h. TGF-β1 (BD Biosciences, San Jose, CA, USA) was administered at 5 ng/mL concentration in all experiments.
MRC-5 cell viability was evaluated using CytoTox-ONE™ Homogeneous Membrane Integrity Assay (Promega Corporation, Madison, WI, USA) according to the manufacturer’s protocol. The average fluorescence intensity with an excitation wavelength of 560 nm and an emission wavelength of 590 nm was measured using a microplate reader (SpectraMax® iD3, Molecular Devices, San Jose, CA, USA). Experiments were run three times in duplicates. MRC-5 proliferation was determined using the alamarBlue® assay. Cells were seeded for 24 h in standard culture medium, then serum-starved for an additional three days. Evaluated compounds (1-50 µM) were added 1 h prior FBS (10%, v/v) for an additional 48 h. After incubation, the alamarBlue® reagent (Invitrogen, Life Technologies, Carlsbad, CA, USA), dissolved in Hank’s Balanced Salt Solution (10% v/v; Gibco, Thermo Fisher Scientific, Waltham, MA, USA), was added for 30 min. After the observed color change, the supernatant was transferred to 96-well plates, and the absorbance was measured at 570 and 600 nm. The percent difference in reduction between treated and control cells was calculated according to the manufacturer’s protocol. The experiments were run three times in duplicates.
Background: Resazurin is reduced to fluorescent resorufin, in cell work by metabolically active cells.

Assay [2] relates to TGF-β1-induced MRC-5 cells. The experiment in a line: Immunofluorescence count of α-SMA positive myofibroblasts. It counts as cell-based, human. The conditions noted are these: 10 µM, 48 h TGF-β1 5 ng/mL. The protocol:
(§1) For immunocytochemical labeling, MRC-5 cells were seeded on glass coverslips. Study compounds (10 µM) were added 1 h before TGF-β1 treatment, and analysis was performed after 1 h (p-Smad-2 and p-CREB detection) or 48 h (α-SMA detection) of incubation. Cells were fixed in methanol or 4% formaldehyde solution, permeabilized in 0.2% or 0.1% Triton X-100 solution (for p-Smad-2 and p-CREB or α-SMA, respectively). After incubation in blocking solution the following primary antibodies: rabbit polyclonal, anti-phospho-Smad-2 (Ser465, Ser467) antibody (#44-244G, Thermo Fisher Scientific, Waltham, MA, USA); rabbit polyclonal, anti-phospho-CREB1 (Ser133) antibody (#orb213775, Biorbyt, Cambridge, United Kingdom); mouse monoclonal, anti-α-SMA antibody (#MA5-11547, Thermo Fisher Scientific, Waltham, MA, USA) and secondary antibodies: goat anti-rabbit Alexa Fluor 546 conjugated antibody and goat anti-mouse Alexa Fluor 488 conjugated antibody (#A-11010 and #A-11001, respectively, Invitrogen, Carlsbad, CA, USA) were used. Nuclei were counterstained with Hoechst 33342 dye (Thermo Fisher Scientific, Waltham, MA, USA). Slides were mounted in ProLong™ Glass Antifade Mountant (Invitrogen, Carlsbad, CA, USA) and analyzed using Leica DMiL LED Fluo microscope (for α-SMA and p-CREB visualization, 40× objective) or Leica DMi8 with Thunder Imaging System (for p-Smad-2 visualization, 40× objective), all equipped with LAS-X Software (Leica Microsystems GmbH, Wetzlar, Germany). Experiments were run four times using five randomly selected fields of view, at the same fluorescent time exposure and in a blind-folded manner.

In assay [3] the test system is TGF-β1-induced MRC-5 cells. The assay is described as follows: Western blot of p-Smad-2. Type of assay: cell-based, human. The settings on record: 10 µM, 1 h pre-incubation, TGF-β1 5 ng/mL 1 h. Here is the method:
Western Blot analysis was performed according to a standard protocol. Briefly, MRC-5 cells were pre-incubated with the study compounds (10 µM) for 1 h, […] (RIPA Lysis and Extraction Buffer, Thermo Fisher Scientific, Waltham, MA, USA) and supplemented with protease inhibitor cocktail and phosphatase inhibitor cocktail (both from Sigma Aldrich, St. Louis, MO, USA). Equal amounts of protein (30 µg) were separated using 10% SDS-polyacrylamide gels and transferred onto polyvinylidene difluoride (PVDF) membranes (Thermo Fisher Scientific, Waltham, MA, USA). Then membranes were washed with Tris Buffered Saline with Tween 20 (TBST) buffer (150 mM NaCl, 50 mM Tris, 0.05% Tween 20), blocked with 5% skim milk in TBST and incubated overnight with the appropriate primary antibody: rabbit, polyclonal anti-SMAD2 antibody, dilution 1:250, #51-1300 and rabbit, polyclonal anti-phospho-SMAD2 (Ser465, Ser467) antibody, dilution 1:500, #44-244G (both from Thermo Fisher Scientific, Waltham, MA, USA); rabbit, polyclonal anti-CREB1 antibody, dilution 1:500, #orb213777 and rabbit, polyclonal anti-phospho-CREB1 (Ser133) antibody, dilution 1:500, #orb213775 (both from Biorbyt LLC, San Francisco, CA, USA); mouse monoclonal anti-GAPDH antibody, dilution 1:5000, #G8795 (Sigma Aldrich, St. Louis, MO, USA). The next day, after gentle rising, membranes were exposed to secondary, rabbit anti-mouse IgG (whole molecule) peroxidase antibody (#A9044, dilution 1:3000, Sigma Aldrich, St. Louis, MO, USA) and goat anti-rabbit IgG (H+L) peroxidase-conjugated antibody (#32460, dilution 1:3000, Thermo Fisher Scientific, Waltham, MA, USA). Blots were visualized using a chemiluminescence method (Clarity Max™ Western ECL Substrate—Peroxide Solution, BioRad, Hercules, CA, USA) with a C-DiGit® Blot Scanner (LI-COR Biosciences, Lincoln, NE, USA). ROD was measured according to the NIH guidelines with Fiji ImageJ Software. The experiments were run four times.

Assay [4] relates to TGF-β1-induced MRC-5 cells. The experiment in a line: Protein kinase A activity. It counts as cell-based, human. The conditions noted are these: 10 µM 30 min, then TGF-β1 30 min. The protocol: Protein Kinase A (PKA) activity in MRC-5 cells was determined using a PKA Colorimetric Activity Kit (Invitrogen, Carlsbad, CA, USA) according to the manufacturer’s protocol. MRC-5 cells were seeded in standard culture medium, and after 48 h they were serum-starved for 2 h in HBSS, followed by the addition of study compounds (10 µM) and incubation for 30 min. Finally, TGF-β1 was administered, and the samples were incubated for an additional 30 min. Whole cell lysates were used in the assay. The amount of PKA was normalized to the total protein content in each sample. The experiments were run two times in duplicates.

The test system of assay [5] is TGF-β1-induced MRC-5 cells. The assay is described as follows: Immunofluorescence, nuclear localization of p-CREB. Type of assay: cell-based, human. The settings on record: 10 µM. The protocol: as §1
For assay [6], the system named is MRC-5 cells. The assay is described as follows: Intracellular calcium measurements (Fluo-4). Type of assay: cell-based, human. The conditions noted are these: 10 µM, acute application. Here is the method: MRC-5 cells were briefly washed with NaHEPES buffer (NaHEPES buffer was prepared as follows: NaCl 140 mM, KCl 4.7 mM, HEPES 10 mM, MgCl2 1 mM, glucose 10 mM; pH 7.3) and then loaded with 1 µM Fluo-4 AM (Thermo Fisher Scientific, Waltham, MA, USA) for 1 h, 37 °C in NaHEPES. After the incubation, the cells were washed again with fresh NaHEPES and used for experiments in a flow chamber perfused with NaHEPES-based extracellular solution supplemented with 1 mM CaCl2. All experiments were carried out at room temperature using Zeiss LSM 880 confocal microscope (40× oil objective), excitation was set to 488 nm, and the emission was between 500 and 600 nm. Each series of images was recorded at 256 × 256-pixel resolution, two consecutive frames were averaged, and the interval between the averaged images was set at 2 s. Fluorescence signals were plotted as F/F0, where F0 was baseline fluorescence defined as the averaged signal from ten consecutive baseline images.

Molecules are shown by their SMILES.

T1 sequence (O75762 whole entry, species assumed): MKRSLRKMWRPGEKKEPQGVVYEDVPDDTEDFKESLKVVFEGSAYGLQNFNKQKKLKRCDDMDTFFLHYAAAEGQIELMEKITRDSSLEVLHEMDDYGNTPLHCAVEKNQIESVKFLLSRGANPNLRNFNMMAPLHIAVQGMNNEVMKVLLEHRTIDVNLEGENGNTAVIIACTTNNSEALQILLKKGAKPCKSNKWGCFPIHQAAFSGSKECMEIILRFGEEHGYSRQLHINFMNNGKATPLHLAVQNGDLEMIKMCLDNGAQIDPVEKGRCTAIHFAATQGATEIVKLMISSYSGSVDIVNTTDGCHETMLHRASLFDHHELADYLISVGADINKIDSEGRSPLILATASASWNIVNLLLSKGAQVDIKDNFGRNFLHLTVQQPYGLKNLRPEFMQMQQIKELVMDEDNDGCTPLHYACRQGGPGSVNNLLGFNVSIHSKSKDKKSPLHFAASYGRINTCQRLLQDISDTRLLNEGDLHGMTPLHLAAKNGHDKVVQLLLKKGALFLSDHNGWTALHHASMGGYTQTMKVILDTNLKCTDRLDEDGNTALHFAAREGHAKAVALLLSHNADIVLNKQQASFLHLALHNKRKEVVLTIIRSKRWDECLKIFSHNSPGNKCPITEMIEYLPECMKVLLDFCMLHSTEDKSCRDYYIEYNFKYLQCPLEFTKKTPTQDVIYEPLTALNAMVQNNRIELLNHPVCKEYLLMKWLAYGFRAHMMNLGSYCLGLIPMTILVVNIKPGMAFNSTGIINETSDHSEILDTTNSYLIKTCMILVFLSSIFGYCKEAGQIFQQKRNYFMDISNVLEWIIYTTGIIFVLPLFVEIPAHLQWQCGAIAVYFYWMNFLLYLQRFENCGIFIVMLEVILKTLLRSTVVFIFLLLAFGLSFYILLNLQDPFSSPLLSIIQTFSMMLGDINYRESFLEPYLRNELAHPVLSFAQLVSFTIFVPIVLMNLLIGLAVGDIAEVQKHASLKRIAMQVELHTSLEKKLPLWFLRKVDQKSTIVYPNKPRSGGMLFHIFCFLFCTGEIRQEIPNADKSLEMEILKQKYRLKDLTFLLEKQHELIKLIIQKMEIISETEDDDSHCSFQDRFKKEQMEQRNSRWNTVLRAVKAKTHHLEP

For `CC(C)c1ccc(NC(=O)Cn2cnc3c2c(=O)n(C)c(=O)n3C)cc1` [HC-030031, 2-(1,3-dimethyl-2,6-dioxo-1,2,3,6-tetrahydro-7H-purin-7-yl)-N-(4-isopropylphenyl)acetamide, reference compound], the “TRPA1 Inhibition (% of control)” value on TRPA1 (10 µM) is on record as 91.8 % of control; on TRPA1 (50 µM), 98.8 % of control. Moreover, the inhibition at 50 µM with MRC-5 cells [1] (50 µM) amounted to 15%. Also, the “MRC-5 proliferation [% of control]” value in the assay with MRC-5 cells [1] (1 µM) is 98 % of control; with MRC-5 cells [1] (5 µM), 96 % of control; in the assay with MRC-5 cells [1] (10 µM), 95 % of control; with MRC-5 cells [1] (15 µM), 90 % of control; in the assay on MRC-5 cells [1] (20 µM), 90 % of control; in the assay on MRC-5 cells [1] (50 µM), 85 % of control. Besides, in assay [2], the “number of myofibroblasts (MRC-5 with α-SMA-positive stress fibers); fibroblast to myofibroblast transition” value is given as “did not show any significant effect”. The “TGF-β1-induced Smad-2 phosphorylation (immunoblot)” value in assay [3] was “no differences”. Moreover, the “Protein kinase A activity in TGF-β1-induced fibroblasts” value in assay [4] is listed as “no significant change”. Moreover, the “elevation of fraction of MRC-5 cells with nuclear p-CREB localization” value in assay [5] is “only a slight increase”.

Take `CC(C)CN1C(=O)/C(=C/C(=O)O)c2cccc(F)c21` [ASP 7663, (E)-2-(7-fluoro-1-isobutyl-2-oxoindolin-3-ylidene)acetic acid, reference compound]: in the assay with MRC-5 cells [1] (50 µM), the inhibition at 50 µM amounted to 14%. Further, the “MRC-5 proliferation [% of control]” value is on record as 99 % of control in the assay with MRC-5 cells [1] (1 µM); 97 % of control with MRC-5 cells [1] (5 µM); 96 % of control in the assay on MRC-5 cells [1] (10 µM); 92 % of control in the assay on MRC-5 cells [1] (15 µM); 89 % of control in the assay with MRC-5 cells [1] (20 µM); 86 % of control in the assay with MRC-5 cells [1] (50 µM). In addition, the “increase in average Ca2+ response area over baseline” value in the assay on MRC-5 cells [6] amounted to 10 fold.

The record behind these values is PMC7312375, “A Novel, Pan-PDE Inhibitor Exerts Anti-Fibrotic Effects in Human Lung Fibroblasts via Inhibition of TGF-β Signaling and Activation of cAMP/PKA Signaling” (International Journal of Molecular Sciences, 2020).
